Measured values published in patent US11827628B2, “Compositions and methods for inhibition of the JAK pathway” (Rigel Pharmaceuticals, Inc., priority 2005, dated 2023).
pIC50: −log10 of the molar value. Where a name gives a salt, the structure may show the parent alone. Read-outs that look alike come from different tables or passages of the source.

Columns and labels:
[1] = tested on: IL-4 stimulated expression of CD23 in human Ramos B cells (JAK-1 and JAK-3); test: Assay for Ramos B-Cell Line Stimulated with IL-4 (CD23 upregulation, FACS); assay type: cell-based; conditions: read-out: IC50, Example 41
In short: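 Log-phase Ramos cells, 1 h compound pre-incubation at 37 °C; IL-4 50 units/mL final, 20-24 h; CD23-PE stain, FACS; IC50.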

[2] = tested on: up-regulation of ICAM-1 (CD54) by IFNγ in U937 human monocytic cells; test: U937 IFNγ ICAM1 FACS Assay; assay type: cell-based; conditions: ICAM-1 expression by FACS, read-out: IC50, Example 44
Source text: The activity of the compounds of the invention may additionally be characterized by assaying the effect of the 2,4-substituted pyrimidinediamine compounds described herein on A549 lung epithelial cells and U937 cells. A549 lung epithelial cells and U937 cells up-regulate ICAM-1 (CD54) surface expression in response to a variety of different stimuli. Therefore, using ICAM-1 expression as readout, test compound effects on different signaling pathways can be assessed in the same cell type. Stimulation with IL-1β through the IL-1β receptor activates the TRAF6/NFκB pathway resulting in up-regulation of ICAM-1. IFNγ induces ICAM-1 up-regulation through activation of the JAK1/JAK2 pathway. The up-regulation of ICAM-1 can be quantified by flow cytometry across a compound dose curve and EC50, values are calculated.
U937 human monocytic cells up-regulate ICAM-1 (CD54) surface expression in response to a variety of different stimuli. Therefore, using ICAM-1 expression as readout, compound effects on different signaling pathways can be assessed in the same cell type. IFNγ up-regulates ICAM-1 through activation of the JAK/Stat pathway. In this example, the up-regulation of ICAM-1 by IFNγ was assessed.
The U937 human monocytic cell line was obtained from ATCC of Rockville Maryland, catalog number CRL-1593.2, and cultured in RPM1-1640 medium containing 10% (v/v) FCS. U937 cells were grown in 10% RPMI. The cells were then plated at a concentration of 100,000 cells per 160 μL in 96 well flat bottom plates. […] Then 4 μL of test compound was transferred to 76 μL of 10% RPMI resulting in a 10× solution (100 μM test compound, 5% DMSO). For control wells, 4 μL of DMSO was diluted into 76 μL 10% RPMI.
The assay was performed in duplicate with 8 points (8 3-fold dilution concentrations from […]) and with 4 wells of DMSO only (control wells) under stimulated conditions and 4 wells of DMSO only under unstimulated conditions.
The diluted compound plate was mixed 2× using a multimek (Beckman Coulter of Brea, California) and then 20 μL of the diluted compounds was transferred to the 96 well plate containing 160 μL of cells, which were then mixed again twice at low speeds. The cells and compounds were then pre-incubated for 30 minutes at 37° C. with 5% CO2.
The 10× stimulation mix was made by preparing a 100 ng/mL solution of human IFNγ in 10% RPMI. […] The cells were kept under conditions for stimulation for 18-24 hours at 37° C. with 5% CO2.
The cells were transferred to a 96 well round bottom plate for staining and then kept on ice for the duration of the staining procedure. Cells were spun down at 1000 rpm for 5 minutes at 4° C., following which the supernatant was removed. Following removal of the supernatant, 1 μL APC conjugated mouse anti-human ICAM-1 antibody was added per 100 μL FACS buffer. The cells were then incubated on ice in the dark for 30 minutes. Following incubation, […] of FACS buffer was added and the cells were centrifuged at 1000 rpm for 5 minutes at 4° C., following which the supernatant was removed. After removal of the supernatant, 200 μL of FACS buffer was added and the cells were resuspended. After suspension, the cells were centrifuged at 1000 rpm for 5 min at 4° C. Supernatant was then removed prior to resuspension of the cells in 150 μL FACS buffer.
Detection was performed using a BD LSR I System Flow Cytometer, purchased from BD Biosciences of San Jose, California The live cells were gated for live scatter and the geometric mean of ICAM-APC was measured (Becton-Dickinson CellQuest software version 3.3, Franklin Lakes, NJ). Both % live cells and ICAM-1 expression was analyzed. The assays for the test compounds were carried out in parallel with a control compound of known activity.

[3] = Ramos B-cell line stimulated with IL-4, CD23 expression by FACS
[4] = U937 cells stimulated with IFNγ
[5] = Homo sapiens, Ramos, Ramos B-cell line stimulated with IL-4, CD23 expression by FACS
[6] = Homo sapiens, U-937, U937 cells stimulated with IFNγ
[7] = Ramos B cells stimulated with IL-4, CD23 expression by FACS

Q: How did the pIC50 [1, 3] turn out when `CNS(=O)(=O)c1cc(Nc2ncc(F)c(Nc3ccc(OCc4cc(C)on4)c(C)c3)n2)ccc1C` [Compound I-239, 5-Fluoro-N2-[3-N-(methyl)aminosulfonyl-4-methylphenyl]-N4-[3-methyl-4-(5-methylisoxazol-3-yl)methyleneoxyphenyl]-2,4-pyrimidinediamine] was run?
A: The pIC50 was 6.62.

Q: And the pIC50 [2, 4]?
A: The pIC50 was 5.15.

Q: With `Cc1ccc(Nc2ncc(F)c(Nc3ccc(OCC#N)c(-c4ccn(CC#N)n4)c3)n2)cc1S(N)(=O)=O` [Compound I-54, N2-(3-Aminosulfonyl-4-methylphenyl]-N4-[4-cyanomethoxy-3-(1-cyanomethylpyrazol-3-yl)phenyl]-5-fluoro-2,4-pyrimidinediamine] as the compound, how does the pIC50 [1, 5] read?
A: Its pIC50 is 6.56.

Q: And the pIC50 [2, 6]?
A: The pIC50 was 5.15.

Q: `N#CCOc1ccc(Nc2nc(Nc3cccc(S(N)(=O)=O)c3)ncc2F)cc1-c1ccn(CC#N)n1` [Compound I-53, N2-(3-Aminosulfonylphenyl)-N4-[4-cyanomethoxy-3-(1-cyanomethylpyrazol-3-yl)phenyl]-5-fluoro-2,4-pyrimidinediamine] was tested. Which pIC50 [1, 5] did it give?
A: The pIC50 was 6.63.

Q: And the pIC50 [2, 6]?
A: Its pIC50 is 4.91.

Q: `Cc1cc(COc2ccc(Nc3nc(Nc4cccc(S(=O)(=O)N(Cc5oc(=O)oc5C(C)(C)C)Cc5oc(=O)oc5C(C)(C)C)c4)ncc3F)cc2)no1` [Compound I-249, N2-{3-[N-N-Di-[(5-t-Butyl-1,3-dioxolene-2-one-4-yl)methylene]]aminosulfonylphenyl}-5-fluoro-N4-[4-(5-methylisoxazol-3-yl)methyleneoxyphenyl]-2,4-pyrimidinediamine] was tested. Which pIC50 [1, 3] did it give?
A: The pIC50 was 6.29.

Q: What about the pIC50 [2, 4] of the same compound?
A: Its pIC50 is 4.96.

Q: Which results are given for `CCN(CC)CCNS(=O)(=O)c1ccc(Nc2ncc(F)c(Nc3ccc(Cc4ccncc4)cc3)n2)cc1` [III-67, N2-[4-(2-N,N-Diethylaminoethyl)aminosulfonylphenyl)-5-fluoro-N4-[4-(4-pyridinylmethyl)phenyl]-2,4-pyrimidinediamine]?
A: pIC50 [1, 3]: 6.46; pIC50 [2, 4]: 5.52

Q: What does the source list for `CCC(=O)NS(=O)(=O)c1cccc(Nc2ncc(F)c(Nc3ccc(OCc4nc(C)no4)cc3)n2)c1` [Compound I-264]?
A: pIC50 [1, 3]: 6.22; pIC50 [2, 4]: 4.82

Q: Which results are given for `CNS(=O)(=O)c1cc(Nc2ncc(F)c(Nc3ccc(OCc4ccccn4)cc3)n2)ccc1C` [Compound I-161, 5-Fluoro-N2-[3-(N-methylaminosulfony)-4-methylphenyl]-5-fluoro-N4-[4-(2-pyridinyl)methyleneoxyphenyl]-2,4-pyrimidinediamine]?
A: pIC50 [1, 3]: 6.50; pIC50 [2, 4]: 5.62

Q: With `Cc1c(Cl)cc(Nc2ncc(F)c(Nc3ccc(OC(F)(F)F)c(Cl)c3)n2)cc1S(N)(=O)=O` [VI-14, N2-(3-Aminosulfonyl-5-chloro-4-methylphenyl)-N4-(3-chloro-4-trifluoromethoxyphenyl)-5-fluoro-2,4-pyrimidinediamine] as the compound, how does the pIC50 ([1]; Homo sapiens, Ramos, Ramos B cells stimulated with IL-4, CD23 expression by FACS) read?
A: Its pIC50 is 6.38.

Q: And the pIC50 [2, 6]?
A: The pIC50 was 5.03.

Q: What does the source list for `CCC(=O)NCc1ccc(Nc2nc(Nc3ccc(C)c(S(N)(=O)=O)c3)ncc2F)cc1` [III-37, N2-(3-aminosulfonyl-4-methyl)phenyl-N4-(4-ethylcarbonylaminomethyl)phenyl-5-fluoro-2,4-pyrimidinediamine]?
A: pIC50 [1, 3]: 6.52; pIC50 [2, 4]: 6.08

Q: `Cc1ccc(Nc2ncc(F)c(Nc3ccc(OCC#N)cc3)n2)cc1S(=O)(=O)NC(=O)C(C)C` [Compound I-39, N4-(4-Cyanomethyleneoxy)phenyl-5-fluoro-N2-(3-isobutyrylaminosulfonyl-4-methyl)phenyl-2,4-pyrimidinediamine sodium Salt] was tested. Which pIC50 ([1]; Ramos B-cell line stimulated with IL-4, CD23 expression by FACS, sodium salt) did it give?
A: Its pIC50 is 6.08.

Q: What about the pIC50 ([2]; U937 cells stimulated with IFNγ, sodium Salt) of the same compound?
A: The pIC50 was 5.03.

Q: `N#CCOc1ccc(Nc2nc(Nc3cccc(S(N)(=O)=O)c3)ncc2F)cc1CO` [Compound I-50, N2-(3-Aminosulfonylphenyl)-N4-(4-cyanomethoxy-3-hydroxymethylphenyl)-5-fluoro-2,4-pyrimidinediamine] was tested. Which pIC50 [1, 5] did it give?
A: The pIC50 was 6.43.

Q: And the pIC50 [2, 6]?
A: The pIC50 was 4.60.

Q: With `NC(=O)NCc1cccc(Nc2nc(Nc3ccc(S(N)(=O)=O)cc3)ncc2F)c1` [III-113, N4-(3-aminocarbonylaminomethyl)phenyl-N2-(4-aminosulfonyl)phenyl-5-fluoro-2,4-pyrimidinediamine] as the compound, how does the pIC50 [1, 7] read?
A: Its pIC50 is 5.99.

Q: What about the pIC50 [2, 4] of the same compound?
A: The pIC50 was 6.46.

Q: `Cc1ccc(Nc2ncc(F)c(Nc3ccc4c(c3)N(Cc3ccccn3)C(=O)CO4)n2)cc1S(N)(=O)=O` [Compound V-3, N2-(3-Aminosulphonyl-4-methylphenyl)-5-fluoro-N4-[3-oxo-4-(2-pyridylmethy)-benz[1,4]oxazin-6-yl]-2,4-pyrimidinediamine] was tested. Which pIC50 [1, 7] did it give?
A: Its pIC50 is 6.18.

Q: What about the pIC50 [2, 4] of the same compound?
A: Its pIC50 is 4.86.
